The text below walks through data of PMC11204923, “Marine Cytotoxin Santacruzamate A Derivatives as Potent HDAC1-3 Inhibitors and Their Synergistic Anti-Leukemia Effects with Venetoclax” (Marine Drugs, 2024).

One series addresses T1, HDAC11 (Homo sapiens, UniProt Q96DB2).
T1 construct: purchased BPS Bioscience
T1 sequence (Q96DB2 1-347): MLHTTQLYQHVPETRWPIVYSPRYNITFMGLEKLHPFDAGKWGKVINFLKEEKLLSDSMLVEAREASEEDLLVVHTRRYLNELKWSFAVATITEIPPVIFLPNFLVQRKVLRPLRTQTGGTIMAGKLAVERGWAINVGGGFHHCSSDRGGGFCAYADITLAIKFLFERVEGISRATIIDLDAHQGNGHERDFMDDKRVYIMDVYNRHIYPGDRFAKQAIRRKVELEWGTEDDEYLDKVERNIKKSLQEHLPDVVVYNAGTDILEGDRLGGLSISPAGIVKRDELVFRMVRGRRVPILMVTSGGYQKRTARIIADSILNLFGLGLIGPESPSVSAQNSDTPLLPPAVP
In words: In vitro HDAC inhibition fluorescence assay, HDAC11. Type of series: biochemical. How it is done: (§1) All of the HDAC enzymes were purchased from BPS Bioscience. In vitro HDAC inhibition assays were conducted as previously described. In brief, 20 μL of recombinant HDAC enzyme solution (HDAC1-9, 11) was mixed with various concentrations of the tested compound (20 μL). The mixture was incubated at 37 °C for 1 h, and then, 10 μL of fluorogenic substrate (Boc-Lys (acetyl)-AMC for HDAC1, 2, 3 and 6; Boc-Lys (trifluoroacetyl)AMC for HDAC4, 5, 7, 8, 9 and 11) was added to achieve a final concentration of 50 μM. After incubation at 37 °C for 2 h, the catalysis was stopped by the addition of 10 μL of developer containing 30 mg/mL trypsin and 6 μM trichostatin A (TSA). Then, 30 min later, the fluorescence intensity was measured using a microplate reader at excitation and emission wavelengths of 360 and 460 nm, respectively. The inhibition ratios were calculated from the fluorescence intensity readings of tested wells relative to those of control wells, and the IC50 curves and values were determined by GraphPad Prism 6.0, using the “log(inhibitor) vs. normalized response-variable slope” function.

Series [1] can be described thus: In vitro stability in artificial gastric juice. Type of series: in vitro ADME. Particulars: 37 °C, within 24 h. How it is done:
Equal samples were collected, and 600 μL acetonitrile was added to quench enzyme reactions. The reaction mixture was swirled for 30 s and then centrifuged at 15,000 rpm at 4 °C for 15 min. The supernatant of each sample was analyzed directly by HPLC (1260 Infinity II, Agilent Technologies, Waldbronn, Germany).

The subject of series [2] is MV4-11 cells. In words: Cell viability assay (resazurin), MV4-11. The settings on record: Homo sapiens, MV4-11, 72 h; read-out: IC50 anti-proliferative activity MV4-11. Type of series: cell-based. As for the experimental part: The AML cell lines MV4-11, THP-1, KASUMI-1 and HL-60 were purchased from Procell Life Science & Technology Co., Ltd. (Wuhan, China). THP-1 and KASUMI-1 were cultured in RPMI-1640 complete medium containing 10% fetal bovine serum and 1% penicillin and streptomycin. MV4-11 was cultured in IMDM complete medium containing 10% fetal bovine serum and 1% penicillin and streptomycin. HL-60 was cultured in IMDM complete medium containing 20% fetal bovine serum and 1% penicillin and streptomycin. All cell lines were cultured in an incubator with humidity set at 95%, temperature at 37 °C and 5% CO2.
MV4-11, THP-1, KASUMI-1 and HL-60 cells were plated in 96-well transparent plates (10,000 to 15,000 cells/100 μL) and after incubation overnight, cells were treated with gradient-diluted inhibitors with several concentrations. After the cells were incubated with inhibitors for 72 h, 1 mg/mL of Resazurin (Sigma-Aldrich, Saint Louis, MO, USA) was added (working concentration was 0.1 mg/mL). After incubation at 37 °C for about 3 h, the fluorescence intensity of […] was measured at 560 nm/590 nm (excitation/emission) with a Spectra Max i3 Microplate Reader, and the cell viability was determined. The IC50 curve was drawn using GraphPad Prism 9.5 software.

Another series addresses T2, HDAC9 (Homo sapiens, UniProt Q9UKV0).
T2 construct: purchased BPS Bioscience
In words: In vitro HDAC inhibition fluorescence assay, HDAC9. Type of series: biochemical. How it is done:
as §1

The test system of series [3] is MV4-11 cells. In words: Western blot analysis. Type of series: cell-based. The settings on record: 24 h. As for the experimental part:
MV4-11 cells were inoculated into 12-well plates at a density of 800,000 cells/mL. After incubation overnight, each well was treated with different concentrations of 25c and Venetoclax alone or in combination. After treatment for 24 h, the cells were collected and washed with pre-cooled PBS. A protease inhibitor (cocktail) and RIPA buffer were added for cell lysis. The decomposed solution was centrifuged at 12,000 rpm for 15 min at 4 °C, and the extracted protein was located in the supernatant. The proteins in each sample were denatured by heating at 100 °C in loading buffer (5×) for 10 min. The same amount of proteins in each sample was separated by SDS-PAGE and then electrotransferred to a PVDF membrane (Merck Millipore, Billerica, MA, USA) and enclosed in 5% skim milk powder for 1 h. The primary antibody diluted with an immune response booster solution was incubated in a shaking bed at 4 °C overnight, and the horseradish (HRP)-conjugated second antibody diluted with 5% skim milk powder was incubated at room temperature for 1 h on the second day. After the PVDF membrane was washed with TBST, the target protein bands could be detected with chemiluminescent reagents (Millipore, Billerica, MA, USA) and visualized in the Tanon 5200 + fluorescence imager.
The primary antibodies Caspase 3 (including Cleaved Caspase-3) (sc-56053), Mcl-1 (94296S), Bcl-xL (ab98143), γ-H2AX (9718S), AcHH3 (Lys27) (8173S), AcHH4 (sc-377520), HH3 (ab1791), Ac-tubulin (sc-23950), HDAC6 (sc-28386), α-tubulin (sc-23948), GAPDH (sc-59540) and β-actin (8H10D10) were purchased from Abcam, Cell Signaling Technology and Santa Cruz Biotechnology.

For another series, the target named is T3, HDAC3 (Homo sapiens, UniProt O15379).
T3 construct: purchased BPS Bioscience
T3 sequence (O15379 whole entry): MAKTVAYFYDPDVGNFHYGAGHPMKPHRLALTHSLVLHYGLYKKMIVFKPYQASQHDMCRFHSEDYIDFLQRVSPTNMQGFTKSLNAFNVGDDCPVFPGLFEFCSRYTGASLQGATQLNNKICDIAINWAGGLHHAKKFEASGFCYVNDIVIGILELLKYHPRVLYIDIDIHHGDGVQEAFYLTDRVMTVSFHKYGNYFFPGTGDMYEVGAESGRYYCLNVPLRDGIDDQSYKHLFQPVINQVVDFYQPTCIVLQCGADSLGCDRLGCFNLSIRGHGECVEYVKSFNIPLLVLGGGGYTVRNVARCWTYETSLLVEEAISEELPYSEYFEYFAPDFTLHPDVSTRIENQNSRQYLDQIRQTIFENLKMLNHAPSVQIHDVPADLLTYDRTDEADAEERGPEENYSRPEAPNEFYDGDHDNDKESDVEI
T3 sequence (Q9Y618 395-489 partner limits assumed): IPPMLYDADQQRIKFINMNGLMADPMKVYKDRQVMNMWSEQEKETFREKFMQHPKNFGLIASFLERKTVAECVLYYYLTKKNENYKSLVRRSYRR
In words: In vitro HDAC inhibition fluorescence assay, HDAC3. Type of series: biochemical. As for the experimental part:
All of the HDAC enzymes were purchased from BPS Bioscience. In vitro HDAC inhibition assays were conducted as previously described. In brief, 20 μL of recombinant HDAC enzyme solution (HDAC1-9, 11) was mixed with various concentrations of the tested compound (20 μL). […] After incubation at 37 °C for 2 h, the catalysis was stopped by the addition of 10 μL of developer containing 30 mg/mL trypsin and 6 μM trichostatin A (TSA). Then, 30 min later, the fluorescence intensity was measured using a microplate reader at excitation and emission wavelengths of 360 and 460 nm, respectively. The inhibition ratios were calculated from the fluorescence intensity readings of tested wells relative to those of control wells, and the IC50 curves and values were determined by GraphPad Prism 6.0, using the “log(inhibitor) vs. normalized response-variable slope” function.

Values joined by “and” are separate entries in the source; they are usually repeats but may differ in a detail not shown here. Identical values can stand only once.

T2 sequence (Q9UKV0 whole entry): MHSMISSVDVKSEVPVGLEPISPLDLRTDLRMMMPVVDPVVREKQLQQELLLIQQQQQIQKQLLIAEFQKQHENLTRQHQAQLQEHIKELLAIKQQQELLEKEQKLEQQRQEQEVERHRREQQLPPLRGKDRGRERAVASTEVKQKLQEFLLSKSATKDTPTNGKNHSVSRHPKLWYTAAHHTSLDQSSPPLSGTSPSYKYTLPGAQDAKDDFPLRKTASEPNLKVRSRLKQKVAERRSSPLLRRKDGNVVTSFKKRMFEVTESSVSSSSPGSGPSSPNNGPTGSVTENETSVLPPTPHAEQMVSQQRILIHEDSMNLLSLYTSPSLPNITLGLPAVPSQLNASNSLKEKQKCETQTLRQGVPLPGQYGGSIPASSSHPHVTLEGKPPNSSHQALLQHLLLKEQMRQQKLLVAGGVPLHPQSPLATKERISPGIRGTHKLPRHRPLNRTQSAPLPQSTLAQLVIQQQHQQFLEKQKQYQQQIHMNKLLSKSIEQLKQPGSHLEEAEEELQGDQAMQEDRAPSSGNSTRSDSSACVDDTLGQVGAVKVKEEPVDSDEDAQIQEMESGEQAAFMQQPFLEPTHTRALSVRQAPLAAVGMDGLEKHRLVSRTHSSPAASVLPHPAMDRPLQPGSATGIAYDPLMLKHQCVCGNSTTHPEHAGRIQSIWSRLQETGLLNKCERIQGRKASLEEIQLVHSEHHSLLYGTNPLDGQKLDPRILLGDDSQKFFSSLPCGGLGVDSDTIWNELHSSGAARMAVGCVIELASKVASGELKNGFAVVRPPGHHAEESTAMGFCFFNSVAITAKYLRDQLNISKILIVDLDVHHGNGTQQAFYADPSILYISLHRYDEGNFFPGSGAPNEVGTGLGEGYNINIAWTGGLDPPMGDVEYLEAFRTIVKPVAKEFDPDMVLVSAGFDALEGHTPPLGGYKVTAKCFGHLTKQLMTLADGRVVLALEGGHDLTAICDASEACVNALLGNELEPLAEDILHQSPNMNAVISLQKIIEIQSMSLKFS

On to `CCCNNC(=O)C=Cc1ccc(CNCCc2ccccc2)cc1` [Compound 25c, 3-(4-((Phenethylamino)methyl)phenyl)-N′-propylacrylohydrazide], for which the IC50 against HDAC11 is more than 10000 nM; in the series with MV4-11 cells [2], 340 ± 117 nM; against HDAC9, more than 10000 nM; on HDAC3, 2.4 nM and 2.39 nM and 2.3 nM. Besides, the “stability in artificial gastric juice” value in series [1] is “relatively stable”. Besides, the “level of cleaved-caspase3” value with MV4-11 cells [3] (25c monotherapy, 30 nM and 90 nM) was “No substantial alterations”. Besides, in the series with MV4-11 cells [3], the level of acetyl-tubulin result is recorded as “increased”. The “level of acetylated histone H3 (AcHH3)” value in the series with MV4-11 cells [3] is on record as “significantly elevated”. Also, the “level of acetylated histone H4 (AcHH4)” value in the series on MV4-11 cells [3] was “significantly elevated”. Moreover, the inhibition at 0.01 µM at HDAC3 (10 nM, read-out: Inhibition Rate of HDAC3 (%)) is more than 95%. For the same compound, the inhibition at 0.1 µM at HDAC3 (100 nM, read-out: Inhibition Rate of HDAC3 (%)) worked out at 95.1 ± 0.1%.
